These results are taken from PMC8657855 (International Journal of Molecular Sciences, 2021).

Values after ≈ are worked out from the molar mass of the structure shown.

What all share (experiment): microbe, parasite or virus in culture
Experiment [1] has as its system Xanthomonas oryzae pv. oryzae Xoo. To be noted: read-out: EC50 (mg/L) Xoo.
For experiment [2], the system named is Xanthomonas oryzae pv. oryzicola Xoc. To be noted: read-out: EC50 (mg/L) Xoc.
Experiment [3] has as its system Xanthomonas oryzae pv. oryzae Xoo. The following applies: for inhibition at 10 µg/mL: read-out: Inhibition (%) 10 (mg/L); for inhibition at 50 µg/mL: read-out: Inhibition (%) 50 (mg/L).
Experiment [4] has as its system Xanthomonas oryzae pv. oryzicola Xoc. To be noted: for inhibition at 10 µg/mL: read-out: Inhibition (%) 10 (mg/L); for inhibition at 50 µg/mL: read-out: Inhibition (%) 50 (mg/L).

Consider `CS(=O)(=O)c1nnc(CNC(=O)c2ccc(C(F)(F)F)cc2)o1` [compound 22, N-((5-(methylsulfonyl)-1,3,4-oxadiazol-2-yl)methyl)-4-(trifluoromethyl)benz amide], for which the EC50 came to 0.72 ± 0.05 mg/L (≈ 2.06 µM) in experiment [1] and 1.7 ± 0.09 mg/L (≈ 4.87 µM) in experiment [2]. In addition, the inhibition at 10 µg/mL in experiment [3] came out at 99.7 ± 0.2%; in experiment [4], 90.3 ± 5.5%. Moreover, the values for the inhibition at 50 µg/mL in experiment [3] and in experiment [4] were 99.9 ± 0.1% and 99.3 ± 0.3%, respectively.
For the compound `CS(=O)(=O)c1nnc(CNC(=O)c2ccc(F)cc2F)o1` [compound 23, 2,4-difluoro-N-((5-(methylsulfonyl)-1,3,4-oxadiazol-2-yl)methyl)benzamide], the EC50 in experiment [1] stood at 0.8 ± 0.09 mg/L (≈ 2.52 µM); in experiment [2], 7.41 ± 1.3 mg/L (≈ 23.4 µM). In addition, the values for the inhibition at 10 µg/mL in experiment [3] and in experiment [4] were 95.7 ± 1.9% and 69.6 ± 1.8%, respectively. Further, the inhibition at 50 µg/mL in experiment [3] came to 95.4 ± 0.4%; in experiment [4] it was 99.5 ± 0.4%.
Regarding `CS(=O)(=O)c1nnc(CNC(=O)c2ccc(Cl)cc2)o1` [compound 24, 4-chloro-N-((5-(methylsulfonyl)-1,3,4-oxadiazol-2-yl)methyl)benzamide], the EC50 in experiment [1] was found to be 0.4 ± 0.03 mg/L (≈ 1.27 µM); in experiment [2], 0.9 ± 0.04 mg/L (≈ 2.85 µM). Moreover, the inhibition at 10 µg/mL in experiment [3] amounted to 99.9 ± 0.1%; in experiment [4] it was 96.9 ± 0.4%. Besides, the inhibition at 50 µg/mL in experiment [3] worked out at 99.6 ± 0.2%; in experiment [4], 97.8 ± 2.7%.
Consider `CCS(=O)(=O)c1nnc(CNC(=O)c2ccc(Cl)cc2)o1` [compound 25, 4-chloro-N-((5-(ethylsulfonyl)-1,3,4-oxadiazol-2-yl)methyl)benzamide], for which the figures for the EC50 in experiment [1] and in experiment [2] were 0.82 ± 0.05 mg/L (≈ 2.49 µM) and 0.94 ± 0.09 mg/L (≈ 2.85 µM), respectively. In addition, the inhibition at 50 µg/mL in experiment [3] was determined as 99.2 ± 0.3%; in experiment [4] it was 98.8 ± 1%. The inhibition at 10 µg/mL in experiment [4] was found to be 99.6 ± 0.3%.
Consider `CS(=O)(=O)c1nnc(CNC(=O)c2ccc(F)cc2)o1` [compound 26, 4-fluoro-N-((5-(methylsulfonyl)-1,3,4-oxadiazol-2-yl)methyl)benzamide], for which the EC50 in experiment [1] came out at 0.61 ± 0.03 mg/L (≈ 2.04 µM); in experiment [2] it was 2.3 ± 0.06 mg/L (≈ 7.69 µM). The inhibition at 10 µg/mL in experiment [3] was determined as 99.4 ± 0.2%; in experiment [4] it was 98.3 ± 1.6%. In addition, the inhibition at 50 µg/mL in experiment [3] turned out to be 99.1 ± 0.1%; in experiment [4] it was 99 ± 1%.
